From ChEMBL document CHEMBL1143075, “Taxanes from Shells and Leaves of Corylus avellana” (2008)

Test system: SK-MES-1
Experiment: Inhibition of metaphase to anaphase transition in human SKMes1 cells at 10 nM
Format: functional

Compound: CC(=O)O[C@H]1C(=O)[C@@]2(C)[C@H]([C@H](OC(=O)c3ccccc3)[C@]3(O)C[C@H](OC(=O)[C@H](O)[C@@H](NC(=O)c4ccccc4)c4ccccc4)C(C)=C1C3(C)C)[C@]1(OC(C)=O)CO[C@@H]1C[C@@H]2O [PACLITAXEL]
- Ratio: 0.026
